Experimental data from patent US20250009924A1, “Indane Derivatives for Malodor Counteraction” (Firmenich SA, priority 2015, published 2025).

How the values were obtained:
[1] = Binary mixtures of lily-of-the-valley odorants with malodor, perception of fecal and animal note; details: the fecal and animal note remains clearly perceptible
[2] = tested on: indole-responsive olfactory sensory neurons; assay: Ca2+ imaging of olfactory sensory neurons, antagonist screening against indole; assay type: cell-based; details: 25 μM indole + 125 μM MOC compound as binary mixture; percentage of malodor-responsive OSN population inhibited by more than 10% (modulation values less than −10%)
Procedure: (§1) Identification of malodor-sensitive olfactory neurons was performed as previously described in WO 2014/210582. Identification of antagonist compounds that inhibit the response of malodor-sensitive olfactory neurons to the target malodor was performed according to Kajiya et al (2001) (K. Kajiya, et al in The Journal of Neuroscience, (2001) 21, 6018-6025).
(§2) Olfactory sensory neurons were stimulated with 25 μM indole (MO) and 125 μM MOC either alone or as a binary mixture. By comparing the peak value of the calcium-induced fluorescence ratio change induced by exposure to the target MO compound to that of the mixture of MO+MOC candidate, a “modulation value” was calculated. The larger the difference between the two peak values, the greater the magnitude of the modulation value. If the peak value for the MO was larger than that of the MO+MOC, the modulation value was negative, whilst the inverse produced positive modulation values. A modulation value was calculated for each cell responding to the positive-control stimulus forskolin (Pos) and the MO compound, but not to the negative-control buffer stimulus (Neg). For each candidate MOC compound, a baseline ‘modulation value’ was obtained by repeated stimulations of olfactory neurons with indole alone (left box plot in B, D, F). The percentage of target malodor-responsive cells with negative modulation values less than −10% was plotted on a bar chart. Population data are represented as box plots, where the interquartile range (25-75th percentiles) of olfactory sensory neuron modulation is contained within the box, with the median indicated by the black bar and the 95th percentile by the arms.
Olfactory sensory neurons were stimulated with 25 μM indole malodor and 125 μM candidate MOC compound as a binary mixture.

[3] = Air dilution olfactometry sensory panel, indole vs indole + compound; assay type: in vivo, human; design: key to Freshness score: linear labeled scale, no freshness to very fresh; key to Animal/Fecal/Tar score: linear labeled scale, no to very animal/fecal/tar; key to Pleasantness score: linear labeled scale, very unpleasant to very pleasant; details: for Freshness score / Pleasantness score / Animal/Fecal/Tar score: indole + compound at individualized iso-intense concentrations; for Freshness score: indole alone 2.2 ± 0.2; for Pleasantness score: indole alone 2.6 ± 0.2; for Animal/Fecal/Tar score: linear labeled scale, indole alone 6.9 ± 0.2; for Animal/Fecal/Tar Reduction: indole + compound vs indole alone, iso-intense levels
Procedure: Air dilution olfactometry was used to measure all psychophysical data of individual and mixed odorants. Odorized flows of air with precisely set concentrations were prepared by the evaporation of a known flux of odorant in a determined flow of air. The flux of odorant was delivered through a microsyringe operated by a calibrated micromotor into a heated vessel under a steady nitrogen flow. The odorant was vaporized and swept away by the nitrogen, and this primary flow was later diluted with humidified air to the desired concentration. Odorants can be presented one by one in olfactometers (see as a reference “Multidimensional visualization of physical and perceptual data leading to a creative approach in fragrance development”, C. Vuilleumier, M. van de Waal, H. Fontannaz, I. Cayeux and P. A. Rebetez, in Perfumer & Flavourist, 33, 55 (2008)); alternatively, a machine blending up to 12 flows of odorants in variable and adjustable proportions could be used. A sniffing outlet delivered a continuous and adjustable odorized air flow. The upper working limit was determined by the vapor pressure of the odorants at room temperature. The odorized flow was delivered at a temperature of 26° C., close to the temperature within the nose. The combination of air (540 l/h) and nitrogen (60 l/h) represented a total gas flow of 600 l/h with a relative humidity of 50%. The speed of injection of the solutions in the evaporation chamber was modulated and controlled for each subject and adjusted to obtain a medium perceived intensity (see above reference, for instance FIG. 4).
Standardized psychophysical procedures were used to determine olfactory detection thresholds (triangle testing) or perceived intensity, after a training period (see above reference).
A method was designed as an iterative process to obtain dose-response relationship and odor detection threshold of perfumery ingredients or malodorants with a minimum number of experiments (see FIG. 5 in the above reference).
FIG. 2 reports the radar plot of indole alone and indole+compound 1 obtained with a panel of 13 persons using a sensory protocol to evaluate the potential antagonists versus indole. The protocol involves two steps: • Step 1: the participants evaluated the tested ingredients and indole independently to adjust their individualized concentrations by changing the rate of injection (see above description and reference) to elicit a medium intensity perception for each chemical. These concentrations, corresponding to iso-intense levels, were applied in the second step of the process. The range of concentrations to be submitted to subjects was determined from dose-response relationships for the selected ingredients and indole. In the present experiment the molar ratio Compound 1/indole varied according to the individuals from about 1/1 to 10/1 (typical preferred individual range is between 2.5/1 and 4.5/1). • Step 2: Blind sensory evaluations were set; no information was disclosed to the participants on the submitted odorous stimuli. The subjects had to evaluate first indole alone at its individualized concentration and rate the following three descriptors on a linear labeled scale: • Pleasantness (From «Very unpleasant» to «Very pleasant») • Freshness (From «No Freshness» to «Very fresh») • Malodor character: Animal/Fecal/Tar (From «No . . . » to «Very . . . »)
The next submission, 30 seconds after the previous one to avoid odor adaptation, involved the simultaneous injection of indole and of the tested ingredient at individualized concentrations. The same descriptors were rated.

[4] = tested on: Skatole OSNs (olfactory sensory neurons); assay: Ca2+ imaging of olfactory sensory neurons, antagonist screening against skatole; assay type: cell-based; details: 50 μM skatole + 250 μM MOC compound as binary mixture; percentage of malodor-responsive OSN population inhibited by more than 10%
Procedure: as §1, §2
Olfactory sensory neurons were stimulated with 50 μM skatole malodor and 250 μM candidate MOC compound as a binary mixture.

[5] = tested on: DMTS OSNs (olfactory sensory neurons); assay: Ca2+ imaging of olfactory sensory neurons, antagonist screening against dimethyl trisulfide (DMTS); assay type: cell-based; details: 50 μM DMTS + 250 μM MOC compound as binary mixture; percentage of malodor-responsive OSN population inhibited by more than 10%
Procedure: as §1, §2
Olfactory sensory neurons were stimulated with 50 μM DMTS malodor and 250 μM candidate MOC compound as a binary mixture.

Structure (SMILES)	Proportion of Indole OSNs [2]	Freshness score [3]	Pleasantness score [3]	Animal/Fecal/Tar score [3]	Animal/Fecal/Tar Reduction [3]	other results
CC1(C)CCc2ccc(CCC=O)cc21 [3-(3,3-dimethyl-2,3-dihydro-1h-inden-5-yl)propanal]						malodor reduction (reduction of the negative odor character) [1]: fail to produce such malodor reduction
Cc1cc2c(cc1C)CC(C)(CO)C2 [Compound 14, 2,5,6-trimethyl-2-indanmethanol]	20%					
CC(C)c1ccc2c(c1)CC(C)(CO)C2 (stereo not drawn) [Compound 12, 5-isopropyl-2-methyl-2-indanmethanol]	57%					
CC(=O)C1(C)Cc2ccc(C)cc2C1 (stereo not drawn) [Compound 6, 1-(2,5-dimethyl-2,3-dihydro-1H-inden-2-yl)ethanone]	69%	5.2 ± 1.6	5.8 ± 1.4	2.2 ± 1.2	68 percentage	Proportion of Skatole OSNs [4]: 92%; Proportion of DTMS OSNs [5]: 94%
Cc1ccc2c(c1)CC(C)(CO)C2 (stereo not drawn) [Compound 1, 2,5-dimethyl-2-indanemethanol]	56%	6.7 ± 0.9	7.8 ± 0.7	1.3 ± 0.5	81 percentage	Proportion of Skatole OSNs [4]: 82%; Proportion of DTMS OSNs [5]: 69%
COCC1(C)Cc2ccc(C)cc2C1 (stereo not drawn) [Compound 2, (2,5-dimethyl-2,3-dihydro-1H-inden-2-yl)methyl methyl ether]	43%	4.7 ± 1.3	3.9 ± 0.8	3.5 ± 1.5	50 percentage	
Cc1cccc2c1CC(C)(CO)C2 (stereo not drawn) [Compound 15, 2,4-dimethyl-2-indanmethanol]	17%					
CC(=O)OCC1(C)Cc2ccccc2C1 [Compound 5, (2-methyl-2,3-dihydro-1H-inden-2-yl)methyl acetate]	77%	5.2 ± 1.2	5.7 ± 1.1	2.7 ± 1.0	61 percentage	Proportion of Skatole OSNs [4]: 87%; Proportion of DTMS OSNs [5]: 82%
Cc1cc(C)c2c(c1)CC(C)(CO)C2 (stereo not drawn) [Compound 16, (2,4,6-trimethyl-2,3-dihydro-1H-inden-2-yl)methanol]	14%	6.2 ± 1.6	6.4 ± 1.3	2.6 ± 1.4	62 percentage	
CC(C=O)Cc1ccc(C(C)(C)C)cc1 (stereo not drawn) [3-(4-tert-butylphenyl)-2-methylpropanal]						malodor reduction (reduction of the negative odor character) [1]: fail to produce such malodor reduction
CC(C)(C)c1ccc(CCC=O)cc1 [3-(4-tert-butylphenyl)propanal]						malodor reduction (reduction of the negative odor character) [1]: fail to produce such malodor reduction
CC1(CO)Cc2ccc(C(C)(C)C)cc2C1 (stereo not drawn) [Compound 13, 5-tert-butyl-2-methyl-2-indanmethanol]	54%					
CC1(CO)Cc2ccccc2C1 [Compound 3, (2-methyl-2,3-dihydro-1H-inden-2-yl)methanol]	41%	5.2 ± 1.5	6.0 ± 1.4	3.1 ± 1.3	55 percentage	
CCC1(CO)Cc2ccc(C)cc2C1 (stereo not drawn) [Compound 11, 2-ethyl-5-methyl-2-indanmethanol]	35%					
Cc1ccc2c(c1)CC(CO)C2 (stereo not drawn) [Compound 4, (5-methyl-2,3-dihydro-1H-inden-2-yl)methanol]	41%	6.6 ± 1.5	7.2 ± 1.2	2.1 ± 1.1	70 percentage	
CC(=O)OCC1(C)Cc2ccc(C)cc2C1 (stereo not drawn) [Compound 10, (2,5-dimethyl-2-indanyl)methyl acetate]	42%					
Cc1ccc2c(c1C)CC(C)(CO)C2 (stereo not drawn) [Compound 9, (2,4,5-trimethyl-2,3-dihydro-1H-inden-2-yl)methanol]	78%					
CCc1ccc2c(c1)CC(C)(CO)C2 (stereo not drawn) [Compound 8, 5-ethyl-2-methyl-2-indanmethanol]	30%					
Cc1ccc2c(c1)CCC(C)(CO)C2 (stereo not drawn) [Compound 7, (2,6-dimethyl-1,2,3,4-tetrahydro-2-naphthalenyl)methanol]	54%					
COc1ccc2c(c1)CC(C)(CO)C2 (stereo not drawn) [Compound 17, (5-methoxy-2-methyl-2,3-dihydro-1H-inden-2-yl)methanol]	23%					
